pEC50: −log10 of the molar value.

One test deals with T1, TLR7 (Homo sapiens, UniProt Q9NYK1).
T1 construct: Human peripheral blood mononuclear cells (PBMCs) consist of lymphocytes, monocytes and dendritic cells that express TLR7, TLR8 and TLR9; endogenous in cells; host or cells: cryopreserved human PBMCs from healthy donors
T1 sequence (Q9NYK1 27-1049): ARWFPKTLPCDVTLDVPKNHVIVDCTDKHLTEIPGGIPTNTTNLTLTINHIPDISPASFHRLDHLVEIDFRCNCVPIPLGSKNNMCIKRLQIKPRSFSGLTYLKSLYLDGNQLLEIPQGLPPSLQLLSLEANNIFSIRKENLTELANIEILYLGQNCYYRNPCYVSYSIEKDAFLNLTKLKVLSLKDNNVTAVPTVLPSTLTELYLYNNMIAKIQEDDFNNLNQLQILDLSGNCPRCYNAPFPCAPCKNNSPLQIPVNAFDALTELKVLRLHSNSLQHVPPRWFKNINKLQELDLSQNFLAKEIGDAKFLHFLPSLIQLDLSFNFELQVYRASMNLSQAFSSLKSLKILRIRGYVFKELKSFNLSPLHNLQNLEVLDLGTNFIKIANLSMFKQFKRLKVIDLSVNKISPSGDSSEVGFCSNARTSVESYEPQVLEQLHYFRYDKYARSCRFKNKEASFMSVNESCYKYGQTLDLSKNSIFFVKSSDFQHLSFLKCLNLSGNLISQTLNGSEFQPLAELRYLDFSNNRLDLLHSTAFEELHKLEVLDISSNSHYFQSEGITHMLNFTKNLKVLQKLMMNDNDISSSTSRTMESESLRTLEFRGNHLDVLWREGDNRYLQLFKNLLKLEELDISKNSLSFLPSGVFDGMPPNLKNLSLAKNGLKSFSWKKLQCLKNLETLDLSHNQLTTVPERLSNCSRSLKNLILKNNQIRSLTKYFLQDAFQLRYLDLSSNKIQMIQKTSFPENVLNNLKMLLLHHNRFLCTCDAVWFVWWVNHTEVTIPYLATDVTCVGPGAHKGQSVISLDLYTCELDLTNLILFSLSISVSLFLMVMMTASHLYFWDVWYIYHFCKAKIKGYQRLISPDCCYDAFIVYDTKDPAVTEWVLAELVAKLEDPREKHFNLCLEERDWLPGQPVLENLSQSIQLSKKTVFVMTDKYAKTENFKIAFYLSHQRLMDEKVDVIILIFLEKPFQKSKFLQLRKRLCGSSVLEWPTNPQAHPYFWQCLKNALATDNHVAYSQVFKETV
In words: TLR7 human PBMC cell-based assay (antagonist, GS-986 stimulated cytokine release). Conditions: human PBMCs; TLR7 agonist GS-986 400 nM, 6 hours; cytokines (IL-6 and IFNα) in supernatant; read-out: TLR-7 EC50. An outline of the steps:
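Cryopreserved healthy-donor PBMCs (100,000/well, RPMI-1640 + 10% FBS) pre-incubated 1 h at 37 °C with antagonist (10-point dose response, quadruplicate), then stimulated 6 h with GS-986 at 400 nM final. Supernatant IL-6 and IFNα measured by electrochemiluminescence immunoassay; EC50 from sigmoidal fit.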

A further test has as its target T2, TLR8 (Homo sapiens, UniProt Q9NR97).
T2 construct: Human peripheral blood mononuclear cells (PBMCs) consist of lymphocytes, monocytes and dendritic cells that express TLR7, TLR8 and TLR9; endogenous in cells; host or cells: cryopreserved human PBMCs from healthy donors
T2 sequence (Q9NR97 27-1041): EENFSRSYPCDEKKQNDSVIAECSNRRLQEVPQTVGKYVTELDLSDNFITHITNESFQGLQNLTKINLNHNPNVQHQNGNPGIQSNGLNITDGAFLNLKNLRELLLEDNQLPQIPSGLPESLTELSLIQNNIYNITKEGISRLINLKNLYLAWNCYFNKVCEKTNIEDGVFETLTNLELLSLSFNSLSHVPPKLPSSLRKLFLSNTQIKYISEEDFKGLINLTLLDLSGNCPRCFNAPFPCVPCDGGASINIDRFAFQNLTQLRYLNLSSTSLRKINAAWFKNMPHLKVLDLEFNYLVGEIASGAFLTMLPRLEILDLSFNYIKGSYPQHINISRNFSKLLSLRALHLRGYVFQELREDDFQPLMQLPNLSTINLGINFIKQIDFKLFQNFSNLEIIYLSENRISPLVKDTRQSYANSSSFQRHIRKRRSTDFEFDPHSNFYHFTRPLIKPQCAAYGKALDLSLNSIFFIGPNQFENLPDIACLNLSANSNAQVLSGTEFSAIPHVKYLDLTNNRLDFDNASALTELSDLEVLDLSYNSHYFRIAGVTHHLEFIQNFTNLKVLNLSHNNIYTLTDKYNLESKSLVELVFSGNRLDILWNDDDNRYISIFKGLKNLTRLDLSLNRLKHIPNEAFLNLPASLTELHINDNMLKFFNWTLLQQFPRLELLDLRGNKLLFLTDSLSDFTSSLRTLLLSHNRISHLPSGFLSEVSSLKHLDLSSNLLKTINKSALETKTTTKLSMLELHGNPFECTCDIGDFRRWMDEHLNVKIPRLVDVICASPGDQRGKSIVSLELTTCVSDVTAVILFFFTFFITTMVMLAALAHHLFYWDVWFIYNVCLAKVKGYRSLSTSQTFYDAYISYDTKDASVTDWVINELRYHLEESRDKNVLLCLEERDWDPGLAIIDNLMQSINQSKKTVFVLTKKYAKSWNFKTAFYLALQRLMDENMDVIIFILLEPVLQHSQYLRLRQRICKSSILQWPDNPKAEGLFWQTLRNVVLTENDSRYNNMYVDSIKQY
The test can be described thus: TLR8 human PBMC cell-based assay (antagonist, Compound A stimulated cytokine release). Particulars: human PBMCs; TLR8 agonist Compound A 800 nM, 6 hours; cytokines (TNFa and IL 12p40) in supernatant; read-out: TLR-8 EC50. A digest of the protocol:
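Cryopreserved donor PBMCs (100,000/well, RPMI + 10% FBS) were preincubated 1 h with antagonist (10-point dose response, quadruplicate), then stimulated with Compound A (800 nM final) for 6 h at 37 °C. TNFa and IL-12p40 in supernatants were measured by electrochemiluminescence; sigmoidal fits gave EC50.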

What is called pEC50 is −log10 of the EC50, conventionally taken in molar units. `Cc1cc(-c2[nH]c3cc(C(=O)N(C)[C@H]4[C@@H]5CNC[C@@H]54)sc3c2C(C)C)cn2ncnc12` [Example 75]: the pEC50 on TLR7 was 8.80; on TLR8, 7.85.

Regarding `Cc1cc(-c2[nH]c3cc(C4CCC5(CC4)CN(C(=O)[C@@H]4CCCN4C)C5)sc3c2C(C)C)cn2ncnc12` [Example 206], the pEC50 is 9.52 at TLR7 and 7.81 at TLR8.

For the molecule `Cc1cc(-c2[nH]c3cc(C(=O)N4CC[C@@H](CN)C4)sc3c2C(C)C)cn2ncnc12` [Example 146], the values for the pEC50 at TLR7 and on TLR8 were 7.72 and 7.57, respectively.

The values are drawn from patent publication US20240217990A1 (Gilead Sciences, Inc., priority 2021, published 2024).
